Source: patent US11938168B2, “Ophthalmic compositions and methods of use therefor” (Auckland Uniservices Limited, priority 2015, dated 2024)

Legend:
keratocytes = assay: TGFβ3 and dexamethasone tested separately, collagen type II production; assay type: cell-based; conditions: agents tested separately
[1] = system: mink lung epithelial (Mv1Lu) cells; conditions: exemplary activity; cited from earlier work

| Compound | collagen type II production in keratocytes (keratocytes) | ED50, inhibition of Mv1Lu cell proliferation [1] [ng/mL] |
| --- | --- | --- |
| C[C@@H]1C[C@H]2[C@@H]3CCC4=CC(=O)C=C[C@]4(C)[C@@]3(F)[C@@H](O)C[C@]2(C)[C@@]1(O)C(=O)CO [dexamethasone, reference compound] | no collagen type II production | – |
| TGFβ3: TGFβ3 polypeptide, SEQ ID NO:1; recombinant human TGFβ3 from commercial sources (Abcam, ab52313) | no collagen type II production | ≤ 50 |
